Test results from US20130059916A1, “BIGUANIDE COMPOUNDS AND ITS USE FOR TREATING CANCER” (priority 2010, published 2013).

Assays:
[1] = system: human G361 cells; assay: Cell viability of human G361 cells, FIG. 2; type: cell-based; conditions: metformin 0 to 20 mM
Text: AICAR [aminoimidazole carboxamide ribonucleotide] an AMPK agonist, is used as reference.

[2] = system: B16 melanoma cells; assay: Syngenic model, allograft of B16 melanoma cells, FIG. 4''; conditions: B16 allograft in C57B16 mice
[3] = system: freshly human melanoma cells isolated from patients; assay: Cell viability of freshly isolated human melanoma cells from patients, FIG. 1'; type: cell-based; conditions: 0 to 10 mM, 72 h
Description: FIG. 1′ discloses a study on viability cells of freshly human melanoma cells isolated from patients.
Doses of metformin used for this experiment are in a range between 0 to 10 mM at 72 h.

[4] = system: melanoma cells; assay: TUNEL assay of mouse tumor sections, FIG. 4'; type: in vivo; conditions: tumor sections of metformin-treated mice
[5] = system: human melanomas cells (A375); assay: Cell viability of human melanoma cells (A375), FIG. 1; type: cell-based; conditions: 0 to 20 mM, 72 h and 96 h
Description: (§1) FIG. 1 discloses a study on viability cells of human melanomas cells (A375) in comparison to normal human melanocytes.
(§2) Doses of metformin used for this experiment are in a range between 0 to 20 mM at 72 h and 96 h.

[6] = system: AMPK; assay: Cell viability after AMPK disruption using si-RNA (Western Blot), FIG. 3; type: cell-based
[7] = system: normal human melanocytes; assay: Cell viability of normal human melanocytes, FIG. 1; type: cell-based; conditions: 0 to 20 mM, 72 h and 96 h
Description: as §1, §2

[8] = system: A375 melanoma cells; assay: Mouse model of melanoma xenograft (A375), FIG. 4; type: in vivo, athymic nude mice; conditions: 2 mg/mouse/day by injection, after 23 days of treatment
[9] = system: melanoma cells; assay: Cell death by FACS analysis of propidium iodide uptake, FIG. 1''; type: cell-based
Description: Cell death was measured by FACS analysis of propidium iodide uptake.

| SMILES | percentage of cell viability [1] | volume of tumor [2] | weight of tumor [2] | effect on cell viability of melanoma cells [3] | TUNEL-positive cells in the tumors [4] | effect on cell viability of melanoma cells [5] | dependence of the effect on cell viability on AMPK [6] | effect on cell viability of melanocytes (normal cells) [7] | volume of melanoma [8] | weight of melanoma [8] | cell death (propidium iodide uptake) [9] |
| --- | --- | --- | --- | --- | --- | --- | --- | --- | --- | --- | --- |
| NC(=O)c1ncn([C@@H]2O[C@H](CO)[C@@H](O)[C@H]2O)c1N [AICAR, aminoimidazole carboxamide ribonucleotide] | no significative effect |  |  |  |  |  |  |  |  |  |  |
| CN(C)C(=N)NC(=N)N [Metformin, N,N-dimethylimidodicarbonimidic diamide] | significant dose dependent decrease | diminished | diminished | dose dependent effect | increase in TUNEL-positive cells | dose dependent effect | independent on AMPK | no effect | decreases significantly | decreases significantly | induces a dose dependent cell death |
